The results in this text go back to paper PMC6149949, “Synthesis and Evaluation of Thiochroman-4-One Derivatives as Potential Leishmanicidal Agents” (Molecules : A Journal of Synthetic Chemistry and Natural …, 2017).

Bounds are passed on as bounds.

One data set can be described thus: in vitro. The following applies: human. The protocol: Cytotoxicity of the compounds was evaluated over human monocytes (U-937 ATCC CRL-1593.2) in exponential growing phase and, adjusted at 1 × 10^5 cells/mL in RPMI-1640 enriched with 10% fetal bovine serum (FBS). One hundred microliters of cell suspension were dispensed in each well of a 96-wells microplate and then, 100 μL of each compound or standard drug (amphotericin B) at four serial dilution concentrations (200, 50, 12.5 and 3.125 μg/mL) were added dissolved in pbs with 0.5% DMSO. Cell exposed to compounds or standard drugs were incubated 72 h at 37 °C and 5% of CO2. Cytotoxic activity of each compound was determined according to the effect on the cell viability by the MTT microenzymatic method in which 3-(4,5-dimethylthiazol-2-yl)- 2,5-diphenyltetrazolium bromide is reduced to a purple product named formazan by mitochondrial enzyme succinate dehydrogenase. Thus, 10 μL/well of MTT solution (5 mg/mL) were added to each well of exposed and unexposed cells, and plates were incubated at 37 °C, 5% CO2 during 3 h. The reaction was stopped by adding 100 μL/well of isopropanol with 50% and 10% of SDS (sodium dodecyl sulfate). The concentration of formazan was determined spectrophotometrically at 570 nm (Varioskan Flash Multimode Reader, Thermo Scientific, Waltham, MA, USA) and intensity of color (absorbance) was registered as O.D. Cells exposed to control drug (amphotericin B) were used as control for toxicity (positive control) while cell incubated in absence of any compound or drug were used as control for viability (negative control). Non-specific absorbance was corrected by subtracting absorbance (O.D) of the blank. Determinations were done by triplicate in at least two independent experiments.
Cytotoxicity was determined according to viability and mortality percentages obtained for each experimental condition (synthetized compounds, amphotericin B and culture medium). Results were expressed as the mean lethal concentrations (LC50), concentration necessary to kill 50% of cells, calculated by the parametric method of linear regression that permits doses-response analysis (Probit analysis).
Initially, viability percentages were calculated by Equation (1), where the O.D of control well, corresponds to 100% of viability. % viability = (O.D exposed cells/O.D unexposed cells) × 100(1)
Then, the percentage of cell growth inhibition was calculated using Equation (2):% inhibition = 100 − (% Viability)(2)
The toxicity was defined according to LC50 values, using the follow scale: Toxic; LC50 < 100 μM; moderately toxic; LC50 > 100 μM and <200 μM and potentially nontoxic; LC50 > 200 μM.

In data set [1] the test system is intracellular amastigotes of Leishmania panamensis (MHOM/CO/87/UA140-EGFP strain). Nature of the data set: In vitro antileishmanial activity on intracellular amastigotes (GFP, flow cytometry). Particulars: for SI (index of selectivity, IS = LC50/EC50): LC50 U-937 / EC50 L. panamensis amastigotes; for EC50: intracellular amastigotes of L. panamensis in U-937 cells, 72 h, mean ± SD. In kind it is cell-based. The protocol: Antileishmanial activity of compounds was determined according to the ability of the compound to reduce the infection by L. panamensis parasites. For this, the antileishmanial activity was tested on intracellular amastigotes of L. panamensis transfected with the green fluorescent protein gene (MHOM/CO/87/UA140-EGFP strain). Briefly, U-937 human cells at a density of 3 × 10^5 cells/mL in RPMI 1640 and 0.1 μg/mL of PMA (phorbol-12-myristate-13-acetate) were dispensed on 24-wells microplate and then infected with stationary phase growing L. panamensis promastigotes in 15:1 parasites per cell ratio. Plates were incubated at 34 °C and 5% CO2 for 3 h and then cells were washed twice with phosphate buffer solution (PBS) to eliminate not internalized parasites. Fresh RPMI-1640 was added into each well (1 mL) and plates were incubated again. After 24 h of infection, the RPMI-1640 medium was replaced by fresh culture medium containing each compound at four serial dilutions (50, 12.5, 3.125 and 0.78 μg/mL) and plates were then incubated at 37 °C and 5% CO2 during 72 h, then, cells were removed from the bottom plate with 100 μL of EDTA/Trypsin (250 mg) solution. The cells were centrifuged at 1100 rpm during 10 min at 4 °C, the supernatant was discarded and cells were washed with 1 mL of cold PBS and centrifuged at 1100 rpm for 10 min at 4 °C. Cells were washed two times employing PBS, as previously, and after the last wash, the supernatant was discarded and cells were suspended in 500 μL of PBS.
Cells were analyzed by flow cytometry employing a flow cytometer (cytomics FC 500MPL, Beckman Coulter. Pasadena, CA, USA) reading at 488 nm (exciting) and 525 nm (emitting) over an argon laser and counting 10,000 events. Infected cells were determined according the events for green fluorescence (parasites). All determinations for each compound and standard drug were carried out by triplicate, in two experiments. Infected cells exposed to control drug (amphotericin B) were used as control for antileishmanial activity (positive control) while infected cells incubated in absence of any compound or drug were used as control for infection (negative control). Nonspecific fluorescence was corrected by subtracting fluorescence of unstained cells. Determinations were done by triplicate in at least two independent experiments.
Antileishmanial activity was determined according reduction of percentage of fluorescent parasites determined according to the median fluorescence intensity (MFI), obtained for each experimental condition by cytometry. The parasite values for each concentration of compound were calculated by Equation (3), where the % of parasites in the control well, corresponds to 100% of parasites. % parasites = (MFI exposed parasites/MFI unexposed parasites) × 100(3)
Then, inhibition percentage was calculated with Equation (4):% inhibition of parasites = 100 − (% parasites)(4)
Results of antileishmanial activities were expressed as the median effective concentrations (EC50) measured by Probit method.
For orientation: Flow cytometry measures light scatter and fluorescence of single cells or particles in a stream.

The mark [2] stands for this setting: Leishmania panamensis, U-937, 72 h.

In general, EC50 refers to the concentration at which the effect is half-maximal. A higher EC50 goes with weaker potency. Take `O=C1CC(c2ccc(C(F)(F)F)cc2)S(=O)(=O)c2ccc(F)cc21` (centres unmarked) [Compound 3j, 6-Fluoro-2-(4-(trifluoromethyl)-phenyl)-thiochroman-4-one 1,1-dioxide]: the CC50 at 72 h in “in vitro” was above 558 µM. Also, the “SI (index of selectivity, IS = LC50/EC50)” value in data set [1] was above 7.06. In data set [1] (setting [2]), this molecule registered an EC50 of 79.1 ± 8.98 µM.
For `O=C1CC(c2ccc(Cl)cc2)S(=O)(=O)c2ccccc21` (centres unmarked) [Compound 3k, 2-(4-Chlorophenyl)-thiochroman-4-one 1,1-dioxide], in that order: above 652 µM, above 4.76 and 137.1 ± 1.29 µM.
In turn, `O=C1CC(c2ccc(F)cc2)S(=O)(=O)c2ccccc21` (centres unmarked) [Compound 3l, 2-(4-Fluorophenyl)thiochroman-4-one 1,1-dioxide] displayed a CC50 at 72 h in the data set “in vitro” of 689 µM. Moreover, the EC50 in data set [1] (setting [2]) was above 68.9 µM.
In the same order, the values of `O=C1CC(c2ccc([N+](=O)[O-])cc2)S(=O)(=O)c2ccccc21` (centres unmarked) [Compound 3m, 2-(4-Nitrophenyl)-thiochroman-4-one 1,1-dioxide] are above 630 µM and above 63 µM.
In “in vitro”, `O=C1C=C(c2ccccc2)S(=O)(=O)c2ccccc21` [Compound 4h, 2-Phenyl-4H-thiochromen-4-one 1,1-dioxide] came in with a CC50 at 72 h above 740 µM. In addition, in data set [1], the “SI (index of selectivity, IS = LC50/EC50)” value is reported as above 97.94 and the EC50 is 7.56 ± 0.33 µM. In data set [1] (setting [2]), this molecule showed an EC50 below 10 µM.
In the same order, the values of `O=C1C=C(c2ccc(C(F)(F)F)cc2)S(=O)(=O)c2ccccc21` [Compound 4i, 2-(4-(Trifluoromethyl)-phenyl)-4H-thiochromen-4-one 1,1-dioxide] are above 591 µM, above 80.97, 7.3 ± 1.6 µM and below 10 µM.
In the same order, the values of `O=C1C=C(c2ccc(Cl)cc2)S(=O)(=O)c2ccccc21` [Compound 4k, 2-(4-Chlorophenyl)-4H-thiochromen-4-one 1,1-dioxide] are above 656 µM, above 87.70, 7.47 ± 0.75 µM and below 10 µM.
As to `O=C1C=C(c2ccc(F)cc2)S(=O)(=O)c2ccccc21` [Compound 4l, 2-(4-Fluorophenyl)-4H-thiochromen-4-one 1,1-dioxide], in “in vitro”, the CC50 at 72 h was above 694 µM. Besides, the results for the EC50 in data set [1] (setting [2]) and in data set [1] were below 10 µM and 6.72 ± 0.16 µM, respectively.
As to `O=C1C=C(c2ccc([N+](=O)[O-])cc2)S(=O)(=O)c2ccccc21` [Compound 4m, 2-(4-Nitrophenyl)-4H-thiochromen-4-one 1,1-dioxide], the CC50 at 72 h in the data set “in vitro” was above 634 µM. Moreover, in data set [1], the “SI (index of selectivity, IS = LC50/EC50)” value is above 87.70 and the EC50 amounted to 7.23 ± 0.44 µM. The EC50 in data set [1] (setting [2]) was below 10 µM.
